The values that follow come from patent publication US7160884B2, “1-/2-substituted-1H/-2H-[1,2,3]triazolo[4,5-g]phthalazine-4,9-dione compound, process for the preparation thereof and pharmaceutical composition comprising the same” (EWHA University-Industry Collaboration Foundation, priority 2005, dated 2007).

Data set [1] has as its system human melanoma cell line (SK-MEL-2). Nature of the data set: SRB cytotoxicity evaluation, SK-MEL-2. It counts as cell-based. As to conditions: for IC50: SRB, SK-MEL-2. The protocol:
(§1) To verify the cytotoxic effect of the compounds prepared in Examples above, cytotoxicity was induced in cancer cells and SRB (Sulforhodamin B dye-staining) evaluation was conducted.
(§2) Each compound prepared in Examples was dissolved in 10% DMSO. 10 μL of the solution and 190 μL of cell suspension (5×10^4 cells/ml) were placed in standard 96-well plate and cultured in 5% CO2 condition at 37° C. for 3 days. 190 μL of the same cell suspension was placed in at least 16 wells, followed by cultivation at 37° C. for 30 minutes, and used as zero-day control. After cultivation for a predetermined period of time, cells were fixed by adding 50 μL of 50% trichloroacetic acid in each well, followed by incubation at 4° C. for 30 minutes. Cells were washed with water 5 times, dried at room temperature, and stained by adding 100 μL of 1% acetic acid solution containing […] in each well, and then washed with 1% acetic acid after 1 hour and dried in air. 200 μL of 10 mM Tris-base was added in each well and stirred well, thereby dissolving the bound staining agent, followed by measurement of absorbance at 515 nm by using ELISA reader. Viability was determined based on the difference between the zero-day control group and 10% DMSO-treated control group. Viability about ellipticin and doxorubicin were also measured for comparison.
(§3) Meanwhile, SRB evaluation was also conducted for human lung cancer cell line (A549), human ovarian cancer cell line (SK-OV-3), human melanoma cell line (SK-MEL-2), human central nervous system tumor cell line (XF498), and human colon cancer cell line (HCT15), and the results are shown in TABLE 2.

In data set [2] the test system is human lung cancer cell line (A549). Put plainly: SRB cytotoxicity evaluation, A549. As to conditions: for IC50: SRB, A549. It is filed as cell-based. Here is the method:
as §1, §2, §3

Data set [3] relates to human colon cancer cell line (Col2). Nature of the data set: SRB cytotoxicity evaluation, Col2. It counts as cell-based. Particulars: 3 days culture. The protocol: as §1
(§4) Cancer cell lines used herein (NCI, US) was human gastric cancer cell line (SNU-638), human colon cancer cell line (Col2), human fibrosarcoma cell line (HT1080), and human myelogenous leukemia cell line (HL-60).
as §2

Data set [4] concerns human colon cancer cell line (HCT15). Nature of the data set: SRB cytotoxicity evaluation, HCT15. It is filed as cell-based. Here is the method:
as §1, §2, §3

For data set [5], the system named is human central nervous system tumor cell line (XF498). Nature of the data set: SRB cytotoxicity evaluation, XF498. It counts as cell-based. As to conditions: for IC50: SRB, XF498. Here is the method:
as §1, §2, §3

The test system of data set [6] is human gastric cancer cell line (SNU-638). Put plainly: SRB cytotoxicity evaluation, SNU-638. It counts as cell-based. Particulars: 3 days culture. Here is the method: as §1, §4, §2
Data set [7] deals with human ovarian cancer cell line (SK-OV-3). Put plainly: SRB cytotoxicity evaluation, SK-OV-3. It is filed as cell-based. Particulars: for IC50: SRB, SK-OV-3. The protocol: as §1, §2, §3
In data set [8] the test system is human fibrosarcoma cell line (HT1080). Put plainly: SRB cytotoxicity evaluation, HT1080. It is filed as cell-based. Particulars: for IC50: SRB, 3 days culture, HT1080. Here is the method: as §1, §4, §2
The subject of data set [9] is human myelogenous leukemia cell line (HL-60). Put plainly: SRB cytotoxicity evaluation, HL-60. It is filed as cell-based. Particulars: 3 days culture. Here is the method:
as §1, §4, §2

Data set [10] deals with human gastric cancer adenocarcinoma cell line. As to conditions: cited from earlier work.
[11] abbreviates: comparison among tested compounds, in words.

Where two headings read alike, the source gives them in different places.

A word on the IC50: it is the midpoint of a concentration-inhibition curve.

Turning to `COc1cccc2c1C(=O)c1c(O)c3c(c(O)c1C2=O)C[C@@](O)(C(=O)CO)C[C@@H]3O[C@H]1C[C@H](N)[C@H](O)[C@H](C)O1` [Doxorubicin, reference compound], the IC50 is 19 nM in data set [1] (Homo sapiens); 22 nM in data set [2] (Homo sapiens); 98 nM in data set [3] (Homo sapiens, 72 h); 251 nM in [4] (Homo sapiens, HCT-15); 44 nM in data set [5] (Homo sapiens); 52 nM in [6] (Homo sapiens, 72 h). The IC50 was determined as 41 nM in [7] (Homo sapiens); 22 nM in data set [8] (Homo sapiens, HT-1080, 72 h); 44 nM in data set [9] (Homo sapiens, 72 h).
Regarding `CCCCn1nnc2c1C(=O)c1cnncc1C2=O` [Example 5a, 1-n-butyl-1H-[1,2,3]triazolo[4,5-g]phthalazin-4,9-dione], the IC50 turned out to be 23 nM in [1] (Homo sapiens); 81 nM in data set [2] (Homo sapiens); 421 nM in data set [3] (Homo sapiens, 72 h); 177 nM in data set [4] (Homo sapiens, HCT-15); 181 nM in data set [5] (Homo sapiens); 155 nM in data set [6] (Homo sapiens, 72 h). In addition, the IC50 in data set [7] (Homo sapiens) is 21 nM; in data set [8] (Homo sapiens, HT-1080, 72 h), 99 nM; in data set [9] (Homo sapiens, 72 h), 89 nM.
As for `Cc1c2ccncc2c(C)c2c1[nH]c1ccccc12` [Ellipticin, reference compound], the IC50 in [1] is 2410 nM; in data set [2] it was 1320 nM; in [3], 2620 nM; in data set [4] it was 3720 nM; in data set [5], 3640 nM; in data set [6] it was 2990 nM. The results for the IC50 in data set [7], in data set [8] and in [9] were 1470 nM, 1930 nM and 3370 nM, respectively.
Regarding `O=C1c2cnncc2C(=O)c2[nH]nnc21` [Example 1b, 1H-[1,2,3]triazolo[4,5-g]phthalazin-4,9-dione], the IC50 is greater than 10000 nM in [1] (Homo sapiens); 9020 nM in data set [2] (Homo sapiens); greater than 5000 nM in [3] (Homo sapiens, 72 h); greater than 10000 nM in data set [4] (Homo sapiens, HCT-15); greater than 10000 nM in data set [5] (Homo sapiens); greater than 5000 nM in data set [6] (Homo sapiens, 72 h). For the same compound, the IC50 is 7640 nM in data set [7] (Homo sapiens); greater than 5000 nM in data set [8] (Homo sapiens, HT-1080, 72 h); greater than 5000 nM in [9] (Homo sapiens, 72 h).
Take `Cc1nc2c(n1-c1ccc(Br)cc1)C(=O)c1nccnc1C2=O` [2-methyl-4,9-dehydro-1-(4-bromophenyl)-1H-imidazo[4,5-g]-quinoxaline-4,9-dione]: in [10], the “cytotoxicity compared with cisplatin or doxorubicin” value was “higher than that of cisplatin or doxorubicin”.
On to `CCn1nc2c(n1)C(=O)c1cnncc1C2=O` [Example 3b, 2-ethyl-2H-[1,2,3]triazolo[4,5-g]phthalazin-4,9-dione], for which the IC50 in data set [1] (Homo sapiens) was 4 nM; in data set [2] (Homo sapiens), 18 nM; in data set [3] (Homo sapiens, 72 h), 170 nM; in data set [4] (Homo sapiens, HCT-15), 18 nM; in data set [5] (Homo sapiens) it was 17 nM; in data set [6] (Homo sapiens, 72 h), 46 nM. The IC50 in [7] (Homo sapiens) stood at 3 nM; in data set [8] (Homo sapiens, HT-1080, 72 h), 204 nM; in data set [9] (Homo sapiens, 72 h) it was 90 nM.
Regarding `Cn1nnc2c1C(=O)c1cnncc1C2=O` [Example 2a, 1-methyl-1H-[1,2,3]triazolo[4,5-g]phthalazin-4,9-dione], the IC50 in [1] (Homo sapiens) stood at 8 nM; in data set [2] (Homo sapiens), 4 nM; in [3] (Homo sapiens, 72 h) it was 311 nM; in [4] (Homo sapiens, HCT-15), 103 nM; in data set [5] (Homo sapiens), 35 nM; in data set [6] (Homo sapiens, 72 h) it was 241 nM. Besides, the IC50 in data set [7] (Homo sapiens) was 3 nM; in data set [8] (Homo sapiens, HT-1080, 72 h) it was 73 nM; in data set [9] (Homo sapiens, 72 h), 82 nM.
In the case of `CCCn1nc2c(n1)C(=O)c1cnncc1C2=O` [Example 4b, 2-n-propyl-2H-[1,2,3]triazolo[4,5-g]phthalazin-4,9-dione], the IC50 in data set [1] (Homo sapiens) is 9 nM; in data set [2] (Homo sapiens), 19 nM; in [3] (Homo sapiens, 72 h), 57 nM; in data set [4] (Homo sapiens, HCT-15), 18 nM; in data set [5] (Homo sapiens) it was 18 nM; in data set [6] (Homo sapiens, 72 h) it was 43 nM. The concentration for half-maximal inhibition (IC50) in data set [7] (Homo sapiens) worked out at 9 nM; in [8] (Homo sapiens, HT-1080, 72 h), 33 nM; in data set [9] (Homo sapiens, 72 h), 157 nM.
Consider `CCCn1nnc2c1C(=O)c1cnncc1C2=O` [Example 4a, 1-n-propyl-1H-[1,2,3]triazolo[4,5-g]phthalazin-4,9-dione], for which the IC50 in data set [1] (Homo sapiens) stood at 20 nM; in data set [2] (Homo sapiens), 26 nM; in data set [3] (Homo sapiens, 72 h), 353 nM; in data set [4] (Homo sapiens, HCT-15), 176 nM; in data set [5] (Homo sapiens), 85 nM; in [6] (Homo sapiens, 72 h), 212 nM. Moreover, the IC50 in [7] (Homo sapiens) was 14 nM; in data set [8] (Homo sapiens, HT-1080, 72 h), 75 nM; in data set [9] (Homo sapiens, 72 h), 83 nM.
On to `COc1ccc(Cn2nnc3c2C(=O)c2cnncc2C3=O)cc1` [Example 1a, 1-(4-methoxybenzyl)-1H-[1,2,3]triazolo[4,5-g]phthalazin-4,9-dione], for which the IC50 in data set [1] (Homo sapiens) was determined as 41 nM; in [2] (Homo sapiens) it was 54 nM; in data set [3] (Homo sapiens, 72 h) it was 2380 nM; in data set [4] (Homo sapiens, HCT-15), 59 nM; in data set [5] (Homo sapiens), 118 nM; in data set [6] (Homo sapiens, 72 h), 257 nM. Moreover, the IC50 in data set [7] (Homo sapiens) was found to be 12 nM; in data set [8] (Homo sapiens, HT-1080, 72 h) it was 330 nM; in [9] (Homo sapiens, 72 h) it was 130 nM.
As for `CCCCn1nc2c(n1)C(=O)c1cnncc1C2=O` [Example 5b, 2-n-butyl-2H-[1,2,3]triazolo[4,5-g]phthalazin-4,9-dione], the IC50 turned out to be 15 nM in [1] (Homo sapiens); 18 nM in data set [2] (Homo sapiens); 66 nM in data set [3] (Homo sapiens, 72 h); 18 nM in data set [4] (Homo sapiens, HCT-15); 19 nM in [5] (Homo sapiens); 50 nM in data set [6] (Homo sapiens, 72 h). Besides, the IC50 in data set [7] (Homo sapiens) stood at 17 nM; in data set [8] (Homo sapiens, HT-1080, 72 h), 30 nM; in data set [9] (Homo sapiens, 72 h) it was 151 nM.
As to `Cn1nc2c(n1)C(=O)c1cnncc1C2=O` [Example 2b, 2-methyl-2H-[1,2,3]triazolo[4,5-g]phthalazin-4,9-dione], the IC50 is 2 nM in data set [1] (Homo sapiens); 2 nM in data set [2] (Homo sapiens); 132 nM in data set [3] (Homo sapiens, 72 h); 20 nM in [4] (Homo sapiens, HCT-15); 4 nM in data set [5] (Homo sapiens); 54 nM in data set [6] (Homo sapiens, 72 h). The IC50 turned out to be 0.4 nM in data set [7] (Homo sapiens); 7.8 nM in data set [8] (Homo sapiens, HT-1080, 72 h); 124 nM in data set [9] (Homo sapiens, 72 h). In addition, in [1] (setting [11]), the “cytotoxicity rank against SK-MEL-2” value is “highest cytotoxicity”. For the same compound, the “cytotoxicity rank against A549” value in [2] (setting [11]) is recorded as “highest cytotoxicity”. The “cytotoxicity rank against XF498” value in [5] (setting [11]) is on record as “highest cytotoxicity”. Moreover, in data set [7] (setting [11]), the “cytotoxicity rank against SK-OV-3” value is on record as “highest cytotoxicity”. In data set [8] (setting [11]), the “cytotoxicity rank against HT1080” value was “highest cytotoxicity”.
For `CCn1nnc2c1C(=O)c1cnncc1C2=O` [Example 3a, 1-ethyl-1H-[1,2,3]triazolo[4,5-g]phthalazin-4,9-dione], the IC50 in [1] (Homo sapiens) turned out to be 8 nM; in [2] (Homo sapiens), 6 nM; in data set [3] (Homo sapiens, 72 h), 341 nM; in data set [4] (Homo sapiens, HCT-15), 39 nM; in [5] (Homo sapiens), 34 nM; in data set [6] (Homo sapiens, 72 h), 126 nM. Further, the IC50 in data set [7] (Homo sapiens) is 3 nM; in data set [8] (Homo sapiens, HT-1080, 72 h) it was 68 nM; in [9] (Homo sapiens, 72 h), 56 nM.
